Data published in ChEMBL document CHEMBL5038667, “Discovery of an Amino Acid-Modified Near-Infrared Aza-BODIPY Photosensitizer as an Immune Initiator for Potent Photodynamic Therapy in Melanoma” (J Med Chem, 2022).
Active and inactive are the calls of the source. The calls are words filed in the database; no cut-off is given here.

Columns and labels:
[1] = Biodistribution in lungs of C57BL/6 mouse harboring mouse B16-F10 cells at 2 mg/kg, iv measured after 12 hrs by flourescence imaging assay; assay type: ADME, organism-based, Lung; conditions: in vivo
[2] = Drug localisation in endoplasmic reticulum of mouse B16-F10 cells at 5 uM incubated for 16 hrs by ER Tracker Green based confocal laser scanning microscopy analysis; assay type: ADME, subcellular; conditions: b16-f10, 16 h
[3] = Biodistribution in spleen of C57BL/6 mouse harboring mouse B16-F10 cells at 2 mg/kg, iv measured after 12 hrs by flourescence imaging assay; assay type: ADME, organism-based; conditions: in vivo
B16-F10 [4] = assay: Photodynamic therapy in mouse B16-F10 cells implanted in C57BL/6 mouse model assessed as increase in infiltration of CD4+ T cells by APC/FITC/PE staining based flow cytometric analysis (reference value: 4.85 %); assay type: functional
B16-F10 [5] = assay: Induction of apoptosis in mouse B16-F10 cells assessed as late apoptotic cells at 10 nM incubated for 16 hrs followed by irradiated with 54 J/cm^2 light dose by Annexin V-FITC/PI based flow cytometric analysis (reference value: 2.32 %); assay type: functional
B16-F10 [6] = assay: Induction of apoptosis in mouse B16-F10 cells assessed as late apoptotic cells at 50 nM incubated for 16 hrs followed by irradiated with 54 J/cm^2 light dose by Annexin V-FITC/PI based flow cytometric analysis (reference value: 2.32 %); assay type: functional
B16-F10 [7] = assay: Antitumor immunity against mouse B16-F10 cells assessed as surface translocation of CRT at 250 nM incubated for 16 hrs followed by irradiated with 54 J/cm^2 light dose and further incubated for 6 hrs by Alexa Fluor 488/Hoechst 33342 staining based confocal laser scanning microscopy; assay type: functional, cell-based
B16-F10 [8] = assay: Induction of apoptosis in mouse B16-F10 cells assessed as viable cells at 250 nM incubated for 16 hrs followed by irradiated with 54 J/cm^2 of light dose by Annexin V-FITC/PI based flow cytometric analysis (reference value: 87.45 %); assay type: functional; conditions: B16-F10, light or radiation study, read-out: Activity
[9] = Biodistribution in kidneys of C57BL/6 mouse harboring mouse B16-F10 cells at 2 mg/kg, iv measured after 12 hrs by flourescence imaging assay; assay type: ADME, organism-based, Kidney; conditions: in vivo
B16-F10 [10] = assay: Antitumor immunity against mouse B16-F10 cells assessed as surface translocation of CRT at 50 nM incubated for 16 hrs followed by irradiated with 54 J/cm^2 light dose and further incubated for 6 hrs by Alexa Fluor 488/Hoechst 33342 staining based confocal laser scanning microscopy; assay type: functional, cell-based
[11] = Phototoxicity against human HeLa cells assessed as reduction in cell viability incubated for 16 hrs followed by irradiated with 54 J/cm^2 of light dose and further incubated for 24 hrs by CCK-8 assay; assay type: toxicity, cell-based; conditions: light or radiation study
B16-F10 [12] = assay: Induction of apoptosis in mouse B16-F10 cells assessed as early apoptotic cells at 50 nM incubated for 16 hrs followed by irradiated with 54 J/cm^2 light dose by Annexin V-FITC/PI based flow cytometric analysis (reference value: 6.48 %); assay type: functional
HeLa = assay: Dark toxicity against human HeLa cells assessed as reduction in cell viability incubated for 16 hrs by CCK-8 assay; assay type: functional, cell-based
B16-F10 [13] = assay: Antitumor activity against mouse B16-F10 cells implanted in C57BL/6 mouse assessed as tumor destruction at 2 mg/kg, iv irradiated with 60 J/cm^2 laser light measured after 14 days by hematoxylin and eosin based microscopic analysis; assay type: functional, organism-based; conditions: time 14.0 day
B16-F10 [14] = assay: Antitumor immunity against mouse B16-F10 cells assessed as release of HMGB1 at 50 nM incubated for 16 hrs followed by irradiated with 54 J/cm^2 light dose and further incubated for 6 hrs by Alexa Fluor 488/Hoechst 33342 staining based confocal laser scanning microscopy; assay type: functional, cell-based
B16-F10 [15] = assay: Induction of ROS generation in mouse B16-F10 cells assessed as cells with high intracellular ROS levels at 100 nM incubated for 16 hrs followed by irradiated with 54 J/cm^2 of light dose by H2DCFDA fluorescent probe based flow cytometry method (reference value: 1.96 %); assay type: functional
B16-F10 [16] = assay: Antitumor immunity against mouse B16-F10 cells assessed as release of HMGB1 at 250 nM incubated for 16 hrs followed by irradiated with 54 J/cm^2 light dose and further incubated for 6 hrs by Alexa Fluor 488/Hoechst 33342 staining based confocal laser scanning microscopy; assay type: functional, cell-based
[17] = Drug localisation in lysosome of human A-375 cells at 5 uM incubated for 16 hrs by Lyso Tracker Green based confocal laser scanning microscopy analysis; assay type: ADME, subcellular; conditions: a-375, 16 h
B16-F10 [18] = assay: Biodistribution in tumor of C57BL/6 mouse harboring mouse B16-F10 cells at 2 mg/kg, iv measured after 12 hrs by flourescence imaging assay; assay type: ADME, organism-based; conditions: in vivo
B16-F10 [19] = assay: Induction of apoptosis in mouse B16-F10 cells assessed as early apoptotic cells at 250 nM incubated for 16 hrs followed by irradiated with 54 J/cm^2 light dose by Annexin V-FITC/PI based flow cytometric analysis (reference value: 6.48 %); assay type: functional
[20] = Biodistribution in heart of C57BL/6 mouse harboring mouse B16-F10 cells at 2 mg/kg, iv measured after 12 hrs by flourescence imaging assay; assay type: ADME, organism-based; conditions: in vivo
A-375 [21] = assay: Induction of apoptosis in human A-375 cells assessed as total apoptotic cells at 250 nM incubated for 16 hrs followed by irradiated with 54 J/cm^2 light dose by Annexin V-FITC/PI based flow cytometric analysis (reference value: 4.79 %); assay type: functional
B16-F10 [22] = assay: Induction of apoptosis in mouse B16-F10 cells assessed as viable cells at 10 nM incubated for 16 hrs followed by irradiated with 54 J/cm^2 of light dose by Annexin V-FITC/PI based flow cytometric analysis (reference value: 87.45 %); assay type: functional; conditions: B16-F10, light or radiation study, read-out: Activity
A-375 [23] = assay: Induction of apoptosis in human A-375 cells assessed as total apoptotic cells at 10 nM incubated for 16 hrs followed by irradiated with 54 J/cm^2 light dose by Annexin V-FITC/PI based flow cytometric analysis (reference value: 4.79 %); assay type: functional
[24] = Drug elimination in C57BL/6 mouse harboring B16-F10 cells at 2 mg/kg, iv measured after 48 hrs by fluorescence imaging assay; assay type: ADME, organism-based; conditions: in vivo
B16-F10 [25] = assay: Dark toxicity against mouse B16-F10 cells assessed as reduction in cell viability incubated for 16 hrs by CCK-8 assay; assay type: cell-based; conditions: B16-F10, 16 h
A-375 [26] = assay: Induction of apoptosis in human A-375 cells assessed as total apoptotic cells at 50 nM incubated for 16 hrs followed by irradiated with 54 J/cm^2 light dose by Annexin V-FITC/PI based flow cytometric analysis (reference value: 4.79 %); assay type: functional
A-375 [27] = assay: Induction of ROS generation in human A-375 cells assessed as cells with high intracellular ROS levels at 10 nM incubated for 16 hrs followed by irradiated with 54 J/cm2 light dose by H2DCFDA fluorescent probe based flow cytometry method (reference value: 2.09 %); assay type: functional
[28] = Biodistribution in whole body of C57BL/6 mouse harboring B16-F10 cells at 2 mg/kg, iv measured after 12 hrs by flourescence imaging assay; assay type: ADME, organism-based; conditions: in vivo
[29] = Lipophilicity, logP of compound; assay type: physicochemical; conditions: octanol/water
B16-F10 [30] = assay: Induction of apoptosis in mouse B16-F10 cells assessed as late apoptotic cells at 250 nM incubated for 16 hrs followed by irradiated with 54 J/cm^2 light dose by Annexin V-FITC/PI based flow cytometric analysis (reference value: 2.32 %); assay type: functional

In the case of `COc1ccc(C2=[N+]3C(=Nc4c(-c5ccccc5)c5c(n4[B-]3(F)F)-c3ccc(OCC(=O)N[C@@H](CC(=O)O)C(=O)O)cc3CC5)C(c3ccccc3)=C2I)cc1`, the Drug uptake [1] is reported as “Active”, the Drug uptake [2] is reported as “Active” and the Drug uptake [3] is reported as “Active”. It also gave an Activity (B16-F10 [4]) of 8.11%, an Activity (B16-F10 [5]) of 7.3% and an Activity (B16-F10 [6]) of 13.7%. For the same compound, the Activity (B16-F10 [7]) was “inactive”, the viability at 0.25 µM (B16-F10 [8]) was 3.76% and the Drug uptake [9] was “Active”. The Activity (B16-F10 [10]) was “Active”, the IC50 [11] was 0.021 µM and the Activity (B16-F10 [12]) was 40.92%. For the same compound, the IC50 (HeLa) was greater than 250 µM, the Activity (B16-F10 [13]) was “Active” and the Activity (B16-F10 [14]) was “Active”. For the same compound, the Activity (B16-F10 [15]) was 70.29%, the Activity (B16-F10 [16]) was “inactive” and the Drug uptake [17] was “Active”. For the same compound, the Drug uptake (B16-F10 [18]) was “Active”, the Activity (B16-F10 [19]) was 75.41% and the Drug uptake [20] was “Active”. The Activity (A-375 [21]) was 93.81%, the viability at 0.01 µM (B16-F10 [22]) was 88.9% and the Activity (A-375 [23]) was 6.68%. For the same compound, the Drug excretion [24] was “Active”, the IC50 (B16-F10 [25]) was greater than 250 µM and the Activity (A-375 [26]) was 66.46%. For the same compound, the Activity (A-375 [27]) was 2.48%, the Drug uptake [28] was “Active” and the logP [29] was -0.77. For the same compound, the Activity (B16-F10 [30]) was 20.54%.
